Assay results from patent publication US10815241B2, “Optically active azabicyclo ring derivative” (priority 2018, dated 2020).
Entries after “also recorded” stand apart in the source; their conditions may differ.

Tests used:
HOXA9 = experiment: Test 3: inhibition of mRNA transcription, HOXA9 in MV4;11 cells; assay type: cell-based; conditions: 20 to 24 hours, relative to GAPDH
Text: (§1) MV4; 11 cells were obtained from American Type Culture Collection (ATCC). […] The expression level of each obtained gene (MEIS1 and HOXA9) was fitted with the expression level of mRNA of GAPDH.

RS4; 11 cells = experiment: Test 2: inhibition of cell proliferation, RS4;11; assay type: cell-based; conditions: for IC50: Homo sapiens, RS4;11 cells, 7 days, PrestoBlue cell viability; for cell proliferation inhibition activity: statement in words, RS4;11 and MOLM-13 cells
Protocol: (§2) RS4; 11 cells were obtained from American Type Culture Collection (ATCC). […] MOLM-13 cells were separately obtained from DSMZ (Deutsche Sammlung von Mikroorganismen und Zellkulturen GmbH).
(§3) The cells were plated to a 96-well plate in 2000 cells/well, each test compound was added thereto to adjust the final concentration of DMSO to 0.1% of DMSO, and the cells were cultured for 7 days. After the cultivation, the cell viability was calculated with PrestoBlue™ Cell Viability Reagent (Invitrogen, A13261).

MEIS1 = experiment: Test 3: inhibition of mRNA transcription, MEIS1 in MV4;11 cells; assay type: cell-based; conditions: for mRNA at 1 μM (% control) MEIS1: MV4;11 cells, 20 to 24 hours, relative to GAPDH; for mRNA transcription inhibition activity: statement in words, MEIS1 and HOXA9, MV4;11 cells
Text: as §1

MOLM-13 cells = experiment: Test 2: inhibition of cell proliferation, MOLM-13; assay type: cell-based; conditions: Homo sapiens, 7 days, PrestoBlue cell viability
Protocol: as §2, §3

[1] = target: hERG (human Ether-a-go-go Related Gene) (Homo sapiens (Human), UniProt Q12809); experiment: Test 4: hERG inhibition (QPatch HT, CHO cells stably expressing hERG); conditions: for hERG/RS4; 11: hERG IC50 divided by RS4;11 proliferation IC50
[2] = target: Menin-MLL binding (His-Menin1-615 / MLL1-172-FLAG) (Homo sapiens (Human), UniProt O00255); experiment: Test 1: inhibition of the Menin-MLL binding (HTRF); conditions: for IC50: Menin-MLL binding inhibition; for Menin-MLL binding inhibition activity: statement in words on the table of Test 1
Protocol: After the incubation, the signal was detected with RUBYstar (BMG LABTECH).

Sequence of Menin-MLL binding (His-Menin1-615 / MLL1-172-FLAG) (O00255 other isoform, or with tags, fused parts or gaps): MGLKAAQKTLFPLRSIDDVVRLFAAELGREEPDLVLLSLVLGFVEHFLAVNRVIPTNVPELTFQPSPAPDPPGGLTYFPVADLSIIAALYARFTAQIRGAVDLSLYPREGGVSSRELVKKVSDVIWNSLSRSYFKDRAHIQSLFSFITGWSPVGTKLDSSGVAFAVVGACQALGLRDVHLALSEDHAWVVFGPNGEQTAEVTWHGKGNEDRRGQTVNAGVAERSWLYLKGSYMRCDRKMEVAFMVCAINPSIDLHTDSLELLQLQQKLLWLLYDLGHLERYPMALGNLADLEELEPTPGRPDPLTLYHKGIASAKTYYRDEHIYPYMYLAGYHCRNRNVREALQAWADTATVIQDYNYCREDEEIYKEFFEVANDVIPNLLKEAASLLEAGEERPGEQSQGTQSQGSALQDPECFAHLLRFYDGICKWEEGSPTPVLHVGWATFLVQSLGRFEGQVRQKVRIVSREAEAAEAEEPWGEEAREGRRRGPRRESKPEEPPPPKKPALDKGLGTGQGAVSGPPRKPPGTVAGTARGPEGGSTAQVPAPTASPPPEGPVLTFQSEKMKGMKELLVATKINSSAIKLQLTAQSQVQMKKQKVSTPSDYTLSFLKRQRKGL
Sequence of hERG (human Ether-a-go-go Related Gene) (Q12809 whole entry): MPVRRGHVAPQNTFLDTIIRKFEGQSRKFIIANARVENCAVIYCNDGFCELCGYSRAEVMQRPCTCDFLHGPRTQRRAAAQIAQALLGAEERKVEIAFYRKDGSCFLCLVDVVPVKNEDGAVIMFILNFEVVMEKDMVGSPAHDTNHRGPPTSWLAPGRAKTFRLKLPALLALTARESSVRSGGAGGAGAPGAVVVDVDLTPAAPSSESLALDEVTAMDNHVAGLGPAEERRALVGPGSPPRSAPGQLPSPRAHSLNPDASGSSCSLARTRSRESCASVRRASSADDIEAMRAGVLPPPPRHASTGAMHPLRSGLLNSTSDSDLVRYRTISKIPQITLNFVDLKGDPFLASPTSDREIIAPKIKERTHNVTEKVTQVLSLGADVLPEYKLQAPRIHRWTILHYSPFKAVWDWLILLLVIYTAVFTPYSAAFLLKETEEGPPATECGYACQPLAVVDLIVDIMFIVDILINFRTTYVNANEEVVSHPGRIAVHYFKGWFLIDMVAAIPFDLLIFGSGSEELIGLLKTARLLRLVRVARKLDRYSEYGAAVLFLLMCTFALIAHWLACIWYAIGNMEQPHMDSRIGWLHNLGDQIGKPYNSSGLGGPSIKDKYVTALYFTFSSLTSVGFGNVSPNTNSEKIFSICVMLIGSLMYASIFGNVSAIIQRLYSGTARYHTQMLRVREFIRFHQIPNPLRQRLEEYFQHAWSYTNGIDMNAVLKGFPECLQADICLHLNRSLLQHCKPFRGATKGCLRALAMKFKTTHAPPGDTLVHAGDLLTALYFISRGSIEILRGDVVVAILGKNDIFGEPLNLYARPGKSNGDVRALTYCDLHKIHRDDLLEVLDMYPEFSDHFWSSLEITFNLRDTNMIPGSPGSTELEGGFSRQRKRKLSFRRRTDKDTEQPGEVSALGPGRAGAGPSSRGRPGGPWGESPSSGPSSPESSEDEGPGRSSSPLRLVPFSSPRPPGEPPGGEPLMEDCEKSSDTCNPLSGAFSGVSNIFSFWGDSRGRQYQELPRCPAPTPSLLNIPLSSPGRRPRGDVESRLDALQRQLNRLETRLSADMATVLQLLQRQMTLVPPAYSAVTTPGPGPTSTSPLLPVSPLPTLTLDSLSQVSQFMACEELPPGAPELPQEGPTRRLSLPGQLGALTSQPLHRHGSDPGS

Row | SMILES | mRNA at 1 μM (% control) HOXA9 (HOXA9) [% control] | IC50 (RS4; 11 cells) [nM] | cell proliferation inhibition activity (RS4; 11 cells) | mRNA at 1 μM (% control) MEIS1 (MEIS1) [% control] | mRNA transcription inhibition activity (MEIS1) | IC50 (MOLM-13 cells) [nM] | IC50 [1] [nM] | gap between RS4; 11 proliferation IC50 and hERG current IC50 [1] | hERG/RS4; 11 [1] | IC50 [2] [nM] | Menin-MLL binding inhibition activity [2]
1 | CC(C)N(C(=O)c1cc(F)ccc1Oc1cncnc1N1CC2(CCN(C(=O)[C@H]3N[C@H]4CC[C@@H]3C[C@H]4CC3CC3)CC2)C1)C(C)C [Example 4, 2-[(4-{7-[(1S,3S,4R,6R)-6-(cyclopropylmethyl)-2-azabicyclo[2.2.2]octane-3-carbonyl]-2,7-diazaspiro[3.5]nonan-2-yl}pyrimidin-5-yl)oxy]-5-fluoro-N,N-di(propan-2-yl)benzamide] | 43.7 | 40 | potent | 18.0 | showed the mRNA transcription inhibition activity | 70 | 5800 | more than 100 fold | 145 | 7.1 | potent
2 | CC(C)N(C(=O)c1cc(F)ccc1Oc1cncnc1N1CC2(CN(C(=O)[C@H]3N[C@H]4CC[C@@H]3C[C@H]4CC3CC3)C2)C1)C(C)C [Example 5, 2-[(4-{6-[(1S,3S,4R,6R)-6-(cyclopropylmethyl)-2-azabicyclo[2.2.2]octane-3-carbonyl]-2,6-diazaspiro[3.3]heptan-2-yl}pyrimidin-5-yl)oxy]-5-fluoro-N,N-di(propan-2-yl)benzamide] | 42.6 | 20 | potent; also recorded: excellent | 15.5 | showed the mRNA transcription inhibition activity | 30 | 7900 | more than 100 fold | 395 | 4.1 | potent
3 | CC(C)N(C(=O)c1cc(F)ccc1Oc1cncnc1N1CC2(CN(C(=O)[C@H]3N[C@H]4CC[C@@H]3[C@@H](F)C4)C2)C1)C(C)C [Example 10, 5-fluoro-2-[(4-{6-[(1S,3S,4S,5S)-5-fluoro-2-azabicyclo[2.2.2]octane-3-carbonyl]-2,6-diazaspiro[3.3]heptan-2-yl}pyrimidin-5-yl)oxy]-N,N-di(propan-2-yl)benzamide] | 37.4 | 20 | potent | 13.3 | showed the mRNA transcription inhibition activity | 30 | > 10000 | more than 100 fold | >500 | < 3 | particularly potent
